Reference: article PMC3639963, “A New Class of Small Molecule Inhibitor of BMP Signaling” (PLoS ONE, 2013)

Assays:
[1] = biological target: T1, AAK1 (Homo sapiens, UniProt Q2M2I8); experiment: DSF thermal shift; type: binding; settings: 10 µM inhibitor; read-out: Tm shift
T1 construct: purchased Nanosyn (enzymatic panel); SGC in-house recombinant human kinases (DSF panel); Invitrogen (ALK1-6)
In short: (§1)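 Thermal melt, qPCR cycler; kinase 1–2 µM, compound 10 µM.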

[2] = biological target: T2, BRK (Homo sapiens, UniProt Q13882); experiment: DSF thermal shift; type: binding; settings: 10 µM inhibitor; read-out: Tm shift
T2 construct: purchased Nanosyn (enzymatic panel); SGC in-house recombinant human kinases (DSF panel); Invitrogen (ALK1-6)
In short: as §1

[3] = biological target: T3, CAMK1δ (Homo sapiens, UniProt Q8IU85); experiment: DSF thermal shift; type: binding; settings: 10 µM inhibitor; read-out: Tm shift
T3 construct: purchased Nanosyn (enzymatic panel); SGC in-house recombinant human kinases (DSF panel); Invitrogen (ALK1-6)
In short: as §1

[4] = biological target: T4, CK1γ3 (Homo sapiens, UniProt Q9Y6M4); experiment: DSF thermal shift; type: binding; settings: 10 µM inhibitor; read-out: Tm shift
T4 construct: purchased Nanosyn (enzymatic panel); SGC in-house recombinant human kinases (DSF panel); Invitrogen (ALK1-6)
In short: as §1

[5] = biological target: T5, DAPK3 (Homo sapiens, UniProt O43293); experiment: DSF thermal shift; type: binding; settings: 10 µM inhibitor; read-out: Tm shift
T5 construct: purchased Nanosyn (enzymatic panel); SGC in-house recombinant human kinases (DSF panel); Invitrogen (ALK1-6)
In short: as §1

[6] = biological target: T6, DYRK1A (Homo sapiens, UniProt Q13627); experiment: DSF thermal shift; type: binding; settings: 10 µM inhibitor; read-out: Tm shift
T6 construct: purchased Nanosyn (enzymatic panel); SGC in-house recombinant human kinases (DSF panel); Invitrogen (ALK1-6)
In short: as §1

[7] = biological target: T7, DYRK2 (Homo sapiens, UniProt Q92630); experiment: DSF thermal shift; type: binding; settings: 10 µM inhibitor; read-out: Tm shift
T7 construct: purchased Nanosyn (enzymatic panel); SGC in-house recombinant human kinases (DSF panel); Invitrogen (ALK1-6)
T7 sequence (Q92630 1-601): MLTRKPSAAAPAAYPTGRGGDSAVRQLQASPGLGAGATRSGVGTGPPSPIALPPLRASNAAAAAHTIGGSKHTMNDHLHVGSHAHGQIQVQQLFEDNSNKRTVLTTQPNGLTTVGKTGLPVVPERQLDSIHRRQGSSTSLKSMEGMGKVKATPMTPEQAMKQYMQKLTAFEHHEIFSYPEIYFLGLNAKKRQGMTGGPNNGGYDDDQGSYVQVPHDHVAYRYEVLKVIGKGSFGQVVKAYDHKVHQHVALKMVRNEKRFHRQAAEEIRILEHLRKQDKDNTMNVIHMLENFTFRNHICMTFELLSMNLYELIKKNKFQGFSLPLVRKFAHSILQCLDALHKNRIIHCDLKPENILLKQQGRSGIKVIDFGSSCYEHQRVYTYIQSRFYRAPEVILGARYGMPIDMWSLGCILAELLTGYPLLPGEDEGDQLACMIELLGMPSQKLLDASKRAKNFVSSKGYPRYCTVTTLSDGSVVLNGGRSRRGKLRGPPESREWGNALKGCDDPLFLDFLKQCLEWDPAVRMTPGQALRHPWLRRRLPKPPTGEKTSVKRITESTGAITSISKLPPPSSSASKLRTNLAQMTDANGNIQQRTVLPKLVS
In short: as §1

[8] = biological target: T8, GRK3 (Homo sapiens, UniProt P35626); experiment: DSF thermal shift; type: binding; settings: 10 µM inhibitor; read-out: Tm shift
T8 construct: purchased Nanosyn (enzymatic panel); SGC in-house recombinant human kinases (DSF panel); Invitrogen (ALK1-6)
In short: as §1

[9] = biological target: T9, MEK6 (Homo sapiens, UniProt P52564); experiment: DSF thermal shift; type: binding; settings: 10 µM inhibitor; read-out: Tm shift
T9 construct: purchased Nanosyn (enzymatic panel); SGC in-house recombinant human kinases (DSF panel); Invitrogen (ALK1-6)
In short: as §1

[10] = biological target: T10, MYLK4 (Homo sapiens, UniProt Q86YV6); experiment: DSF thermal shift; type: binding; settings: 10 µM inhibitor; read-out: Tm shift
T10 construct: purchased Nanosyn (enzymatic panel); SGC in-house recombinant human kinases (DSF panel); Invitrogen (ALK1-6)
In short: as §1

[11] = biological target: T11, PCTAIRE1 (Homo sapiens, UniProt Q00536); experiment: DSF thermal shift; type: binding; settings: 10 µM inhibitor; read-out: Tm shift
T11 construct: purchased Nanosyn (enzymatic panel); SGC in-house recombinant human kinases (DSF panel); Invitrogen (ALK1-6)
In short: as §1

[12] = biological target: T12, PKD2 (Homo sapiens, UniProt Q9BZL6); experiment: DSF thermal shift; type: binding; settings: 10 µM inhibitor; read-out: Tm shift
T12 construct: purchased Nanosyn (enzymatic panel); SGC in-house recombinant human kinases (DSF panel); Invitrogen (ALK1-6)
In short: as §1

[13] = biological target: T13, PKD3 (Homo sapiens, UniProt O94806); experiment: DSF thermal shift; type: binding; settings: 10 µM inhibitor; read-out: Tm shift
T13 construct: purchased Nanosyn (enzymatic panel); SGC in-house recombinant human kinases (DSF panel); Invitrogen (ALK1-6)
In short: as §1

[14] = biological target: T14, RSK4 (Homo sapiens, UniProt Q9UK32); experiment: DSF thermal shift; type: binding; settings: 10 µM inhibitor; read-out: Tm shift
T14 construct: purchased Nanosyn (enzymatic panel); SGC in-house recombinant human kinases (DSF panel); Invitrogen (ALK1-6)
In short: as §1

[15] = biological target: T15, SRPK2 (Homo sapiens, UniProt P78362); experiment: DSF thermal shift; type: binding; settings: 10 µM inhibitor; read-out: Tm shift
T15 construct: purchased Nanosyn (enzymatic panel); SGC in-house recombinant human kinases (DSF panel); Invitrogen (ALK1-6)
In short: as §1

[16] = biological target: T16, STK33 (Homo sapiens, UniProt Q9BYT3); experiment: DSF thermal shift; type: binding; settings: 10 µM inhibitor; read-out: Tm shift
T16 construct: purchased Nanosyn (enzymatic panel); SGC in-house recombinant human kinases (DSF panel); Invitrogen (ALK1-6)
In short: as §1

[17] = biological target: T17, TOPK (Homo sapiens, UniProt Q96KB5); experiment: DSF thermal shift; type: binding; settings: 10 µM inhibitor; read-out: Tm shift
T17 construct: purchased Nanosyn (enzymatic panel); SGC in-house recombinant human kinases (DSF panel); Invitrogen (ALK1-6)
In short: as §1

[18] = biological target: T18, p38β (Homo sapiens, UniProt Q15759); experiment: DSF thermal shift; type: binding; settings: 10 µM inhibitor; read-out: Tm shift
T18 construct: purchased Nanosyn (enzymatic panel); SGC in-house recombinant human kinases (DSF panel); Invitrogen (ALK1-6)
In short: as §1

[19] = biological target: T19, BRAF (Homo sapiens, UniProt P15056); experiment: Nanosyn kinase profiling; type: biochemical; settings: read-out: Percentage inhibition
T19 construct: purchased Nanosyn (enzymatic panel); SGC in-house recombinant human kinases (DSF panel); Invitrogen (ALK1-6)
Method: (§2) Percentage inhibition was determined for each kinase at both 0.1 µM and 1 µM inhibitor concentration (supplemental Table S2).
(§3) Inhibitor selectivity profiling against 200 human kinases at 0.1 and 1 µM inhibitor concentration was performed by Nanosyn (www.nanosyn.com).

[20] = biological target: T20, FLT3 (Homo sapiens, UniProt P36888); experiment: Nanosyn kinase profiling; type: biochemical; settings: read-out: Percentage inhibition
T20 construct: purchased Nanosyn (enzymatic panel); SGC in-house recombinant human kinases (DSF panel); Invitrogen (ALK1-6)
Method: as §2, §3

[21] = tested on: BMP6-induced Smad1/5/8 phosphorylation in C2C12 cells; experiment: BMP6-induced Smad1/5/8 phosphorylation, Western blot; type: cell-based; settings: for inhibition of BMP6-induced Smad1/5/8 phosphorylation: qualitative
Method: (§4) C2C12 and HEK293 cells were grown in DMEM supplemented with 10% FCS (PAA) and seeded at a density of 1 x 10^5 cells per well in 6-well plates. The next day the cells were starved in DMEM containing 1% FCS for 5 hours. Inhibitors were added at the indicated concentrations for 30 minutes followed by 10 ng/mL BMP4 (Peprotech), 100 ng/mL BMP6 (Peprotech), 100 ng/mL Activin A (Peprotech) or 2 ng/mL TGF-β1 (Cell Signaling) for 1 hour. Cells were washed in PBS and lysed on ice for 30 minutes in lysis buffer (20 mM Tris-HCl pH 7.5, 150 mM NaCl, 1% Triton X-100, 25 mM NaF, 25 mM Na β-glycerophosphate, 2 mM Na3VO4) containing protease inhibitors (Roche). Protein concentration in the clarified lysate was determined by Bradford Assay (Pierce) and 15 µg run on 4–12% Bis-Tris gel (Biorad). The protein was transferred onto nitrocellulose membrane (GE Healthcare) and probed with the relevant antibody at 4°C overnight (Cell Signaling: anti-Smad 1 (#9743), anti-P-Smad 1/5/8 (#9511), anti-Smad 2 (#5339), anti-P-Smad 2 (#3101). After subsequent incubation with HRP-conjugated anti-rabbit antibody, protein bands were detected using ECL (Pierce) and an LAS4000 image reader. Cells were purchased originally from the European Collection of Cell Cultures (ECACC) available through Sigma.

[22] = tested on: TGF-β-induced phosphorylation of Smad2 in C2C12 cells; experiment: TGF-β-induced phosphorylation of Smad2, Western blot; type: cell-based; settings: qualitative
Method: as §4

[23] = biological target: T21, GUCY2D (Homo sapiens, UniProt Q02846); experiment: DSF thermal shift; type: binding; settings: 10 µM inhibitor; read-out: Tm shift
T21 construct: purchased Nanosyn (enzymatic panel); SGC in-house recombinant human kinases (DSF panel); Invitrogen (ALK1-6)
In short: as §1

T11 sequence (Q00536 whole entry): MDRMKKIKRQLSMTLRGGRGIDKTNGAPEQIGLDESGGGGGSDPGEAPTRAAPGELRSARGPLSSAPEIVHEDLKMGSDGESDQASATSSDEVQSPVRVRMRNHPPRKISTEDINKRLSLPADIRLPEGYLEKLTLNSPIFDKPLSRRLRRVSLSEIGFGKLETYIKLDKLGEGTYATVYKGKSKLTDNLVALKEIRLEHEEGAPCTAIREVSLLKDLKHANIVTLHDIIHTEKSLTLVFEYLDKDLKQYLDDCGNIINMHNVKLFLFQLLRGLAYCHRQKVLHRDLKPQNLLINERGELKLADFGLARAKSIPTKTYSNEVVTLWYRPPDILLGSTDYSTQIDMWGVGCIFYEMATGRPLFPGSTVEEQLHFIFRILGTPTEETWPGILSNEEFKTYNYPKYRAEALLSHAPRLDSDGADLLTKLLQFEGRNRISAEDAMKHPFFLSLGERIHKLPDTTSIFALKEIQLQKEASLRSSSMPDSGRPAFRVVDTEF
T12 sequence (Q9BZL6 whole entry): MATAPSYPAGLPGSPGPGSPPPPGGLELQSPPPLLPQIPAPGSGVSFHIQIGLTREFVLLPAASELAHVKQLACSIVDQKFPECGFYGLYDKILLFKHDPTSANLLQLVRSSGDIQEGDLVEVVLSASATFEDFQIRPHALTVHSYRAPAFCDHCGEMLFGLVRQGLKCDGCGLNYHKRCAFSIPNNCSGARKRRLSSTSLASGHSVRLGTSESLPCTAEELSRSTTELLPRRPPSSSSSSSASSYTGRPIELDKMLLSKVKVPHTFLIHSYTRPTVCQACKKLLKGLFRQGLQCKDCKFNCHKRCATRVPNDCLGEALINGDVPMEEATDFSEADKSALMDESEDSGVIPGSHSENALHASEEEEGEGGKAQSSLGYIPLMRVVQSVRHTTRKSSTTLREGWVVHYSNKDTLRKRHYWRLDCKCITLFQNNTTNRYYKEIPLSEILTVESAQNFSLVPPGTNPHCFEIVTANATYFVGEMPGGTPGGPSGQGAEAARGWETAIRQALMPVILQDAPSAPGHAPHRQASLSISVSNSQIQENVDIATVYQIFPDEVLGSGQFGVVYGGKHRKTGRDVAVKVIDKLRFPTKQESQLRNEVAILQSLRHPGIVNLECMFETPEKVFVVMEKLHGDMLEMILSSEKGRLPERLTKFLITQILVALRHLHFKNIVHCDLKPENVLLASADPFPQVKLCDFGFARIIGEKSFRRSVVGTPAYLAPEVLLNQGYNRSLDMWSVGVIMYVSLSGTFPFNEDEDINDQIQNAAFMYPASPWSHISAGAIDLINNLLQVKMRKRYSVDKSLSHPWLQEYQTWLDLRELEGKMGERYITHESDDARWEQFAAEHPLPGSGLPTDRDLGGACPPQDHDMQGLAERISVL
T5 sequence (O43293 whole entry): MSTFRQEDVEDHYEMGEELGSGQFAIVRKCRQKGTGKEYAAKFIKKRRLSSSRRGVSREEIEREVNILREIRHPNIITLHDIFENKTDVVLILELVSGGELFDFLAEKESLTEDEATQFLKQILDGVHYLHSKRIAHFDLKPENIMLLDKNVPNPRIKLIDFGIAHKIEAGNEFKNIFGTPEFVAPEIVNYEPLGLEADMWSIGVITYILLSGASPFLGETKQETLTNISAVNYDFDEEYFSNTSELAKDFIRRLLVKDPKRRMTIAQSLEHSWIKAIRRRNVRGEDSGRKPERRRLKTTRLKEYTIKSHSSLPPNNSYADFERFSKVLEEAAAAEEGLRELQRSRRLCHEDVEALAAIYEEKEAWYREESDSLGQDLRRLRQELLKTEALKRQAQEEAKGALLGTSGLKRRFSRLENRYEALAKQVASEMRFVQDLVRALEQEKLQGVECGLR
T18 sequence (Q15759 whole entry): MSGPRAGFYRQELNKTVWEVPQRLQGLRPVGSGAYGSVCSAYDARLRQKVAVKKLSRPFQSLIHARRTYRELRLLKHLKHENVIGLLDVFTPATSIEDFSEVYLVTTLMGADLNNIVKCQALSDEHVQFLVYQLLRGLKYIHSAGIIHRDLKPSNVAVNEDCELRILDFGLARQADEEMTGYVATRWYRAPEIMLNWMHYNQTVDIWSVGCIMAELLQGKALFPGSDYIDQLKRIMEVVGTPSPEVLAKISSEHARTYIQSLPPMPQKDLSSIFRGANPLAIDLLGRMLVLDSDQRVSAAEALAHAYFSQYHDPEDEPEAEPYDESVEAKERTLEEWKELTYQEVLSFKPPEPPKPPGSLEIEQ
T8 sequence (P35626 whole entry): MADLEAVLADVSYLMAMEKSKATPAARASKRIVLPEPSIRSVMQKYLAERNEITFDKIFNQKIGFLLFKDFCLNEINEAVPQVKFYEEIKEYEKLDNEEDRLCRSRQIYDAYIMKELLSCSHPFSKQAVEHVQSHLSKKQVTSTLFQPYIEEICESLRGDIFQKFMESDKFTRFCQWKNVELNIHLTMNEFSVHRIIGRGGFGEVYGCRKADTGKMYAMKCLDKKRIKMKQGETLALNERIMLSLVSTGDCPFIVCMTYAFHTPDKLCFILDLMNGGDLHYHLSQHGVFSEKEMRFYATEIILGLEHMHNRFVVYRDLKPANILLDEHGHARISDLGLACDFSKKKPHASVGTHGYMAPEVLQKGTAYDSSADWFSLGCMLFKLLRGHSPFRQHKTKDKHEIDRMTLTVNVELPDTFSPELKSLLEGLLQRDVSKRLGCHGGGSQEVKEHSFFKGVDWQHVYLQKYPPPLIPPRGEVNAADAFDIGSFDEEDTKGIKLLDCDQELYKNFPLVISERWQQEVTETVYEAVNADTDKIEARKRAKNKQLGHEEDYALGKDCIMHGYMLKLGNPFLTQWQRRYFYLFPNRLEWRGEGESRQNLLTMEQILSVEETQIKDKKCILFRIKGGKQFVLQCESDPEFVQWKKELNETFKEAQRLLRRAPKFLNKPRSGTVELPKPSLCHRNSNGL
T4 sequence (Q9Y6M4 whole entry): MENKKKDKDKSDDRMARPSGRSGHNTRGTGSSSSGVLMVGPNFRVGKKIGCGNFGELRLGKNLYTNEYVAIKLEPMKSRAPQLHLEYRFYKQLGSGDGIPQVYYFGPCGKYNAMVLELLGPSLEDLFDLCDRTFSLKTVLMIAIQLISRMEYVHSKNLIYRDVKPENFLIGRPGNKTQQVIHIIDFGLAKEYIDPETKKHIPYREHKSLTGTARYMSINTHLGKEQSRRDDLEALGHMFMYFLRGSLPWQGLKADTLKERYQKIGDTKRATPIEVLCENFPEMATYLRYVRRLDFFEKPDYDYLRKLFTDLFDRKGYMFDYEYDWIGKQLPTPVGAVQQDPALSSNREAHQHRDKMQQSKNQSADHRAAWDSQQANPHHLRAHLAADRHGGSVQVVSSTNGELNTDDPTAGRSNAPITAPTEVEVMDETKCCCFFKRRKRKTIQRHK
T3 sequence (Q8IU85 whole entry): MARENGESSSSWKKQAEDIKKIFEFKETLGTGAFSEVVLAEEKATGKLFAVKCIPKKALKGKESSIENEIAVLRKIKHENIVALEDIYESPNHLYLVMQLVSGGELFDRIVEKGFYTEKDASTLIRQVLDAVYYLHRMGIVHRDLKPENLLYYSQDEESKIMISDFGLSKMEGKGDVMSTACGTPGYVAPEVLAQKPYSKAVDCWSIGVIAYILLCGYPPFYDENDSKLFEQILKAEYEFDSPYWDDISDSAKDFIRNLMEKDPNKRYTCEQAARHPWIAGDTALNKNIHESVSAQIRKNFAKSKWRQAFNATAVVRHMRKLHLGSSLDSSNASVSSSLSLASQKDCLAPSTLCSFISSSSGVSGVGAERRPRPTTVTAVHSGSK
T9 sequence (P52564 whole entry): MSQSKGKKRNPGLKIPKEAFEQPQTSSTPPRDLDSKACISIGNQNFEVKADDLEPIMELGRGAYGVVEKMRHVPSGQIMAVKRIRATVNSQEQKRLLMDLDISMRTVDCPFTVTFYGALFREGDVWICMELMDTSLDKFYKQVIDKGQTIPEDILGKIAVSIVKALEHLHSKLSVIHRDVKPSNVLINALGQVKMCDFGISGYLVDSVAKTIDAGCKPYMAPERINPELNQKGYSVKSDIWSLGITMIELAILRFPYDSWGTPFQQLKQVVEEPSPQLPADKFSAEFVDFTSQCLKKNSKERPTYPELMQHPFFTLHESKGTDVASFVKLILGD
T1 sequence (Q2M2I8 whole entry): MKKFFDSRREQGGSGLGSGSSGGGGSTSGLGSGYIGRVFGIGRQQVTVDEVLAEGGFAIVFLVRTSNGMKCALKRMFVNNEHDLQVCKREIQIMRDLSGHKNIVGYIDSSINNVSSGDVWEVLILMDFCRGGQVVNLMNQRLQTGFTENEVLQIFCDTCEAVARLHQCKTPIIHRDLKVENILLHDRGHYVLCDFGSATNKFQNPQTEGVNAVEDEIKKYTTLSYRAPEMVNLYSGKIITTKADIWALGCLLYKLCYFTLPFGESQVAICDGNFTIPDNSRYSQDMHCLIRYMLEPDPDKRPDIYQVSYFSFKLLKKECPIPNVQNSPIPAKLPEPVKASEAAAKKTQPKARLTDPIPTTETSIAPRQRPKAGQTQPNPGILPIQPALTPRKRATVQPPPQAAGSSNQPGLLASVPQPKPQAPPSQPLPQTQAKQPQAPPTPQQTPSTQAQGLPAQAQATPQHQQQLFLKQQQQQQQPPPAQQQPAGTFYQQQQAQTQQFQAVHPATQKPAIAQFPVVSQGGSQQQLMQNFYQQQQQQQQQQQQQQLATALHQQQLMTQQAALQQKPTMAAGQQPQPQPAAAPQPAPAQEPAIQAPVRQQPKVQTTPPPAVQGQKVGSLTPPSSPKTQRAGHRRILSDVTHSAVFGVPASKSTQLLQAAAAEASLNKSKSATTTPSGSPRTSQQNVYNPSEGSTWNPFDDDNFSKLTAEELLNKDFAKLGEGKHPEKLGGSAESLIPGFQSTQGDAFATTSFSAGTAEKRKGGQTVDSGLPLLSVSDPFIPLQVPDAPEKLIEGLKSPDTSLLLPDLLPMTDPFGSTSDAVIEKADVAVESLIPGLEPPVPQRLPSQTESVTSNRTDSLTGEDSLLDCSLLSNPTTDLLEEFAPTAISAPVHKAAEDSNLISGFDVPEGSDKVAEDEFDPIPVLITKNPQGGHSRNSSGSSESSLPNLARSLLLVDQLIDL

| Structure (SMILES) | ΔTm at 10 µM [1] [°C] | ΔTm at 10 µM [2] [°C] | ΔTm at 10 µM [3] [°C] | ΔTm at 10 µM [4] [°C] | ΔTm at 10 µM [5] [°C] | ΔTm at 10 µM [6] [°C] | ΔTm at 10 µM [7] [°C] | ΔTm at 10 µM [8] [°C] | ΔTm at 10 µM [9] [°C] | ΔTm at 10 µM [10] [°C] | ΔTm at 10 µM [11] [°C] | ΔTm at 10 µM [12] [°C] | ΔTm at 10 µM [13] [°C] | ΔTm at 10 µM [14] [°C] | ΔTm at 10 µM [15] [°C] | ΔTm at 10 µM [16] [°C] | ΔTm at 10 µM [17] [°C] | ΔTm at 10 µM [18] [°C] | inhibition of BMP6-induced Smad1/5/8 phosphorylation [21] | effect on TGF-β-induced phosphorylation of Smad2 [22] | further results |
| --- | --- | --- | --- | --- | --- | --- | --- | --- | --- | --- | --- | --- | --- | --- | --- | --- | --- | --- | --- | --- | --- |
| COc1cc(-c2cc(-c3cccc(O)c3)cnc2N)cc(OC)c1OC [K02288, 3-[6-amino-5-(3,4,5-trimethoxy-phenyl)-pyridin-3-yl]-phenol] | 0.5 | 0 | -0.3 | 2 | 0.2 | -0.9 | 0.3 | 0.1 | 1.9 | 1 | -1.8 | 0.2 | 1.2 | 1.4 | 0.2 | 1.1 | -0.2 | 0.5 | potently inhibited | no effect | inhibition at 0.1 µM ([19]; 0.1 µM inhibitor): 0%; inhibition at 1 µM ([19]; 1 µM inhibitor): 12%; inhibition at 0.1 µM ([20]; 0.1 µM inhibitor): -2%; inhibition at 1 µM ([20]; 1 µM inhibitor): 0.4%; inhibition of Smad1/5/8 phosphorylation ([21]; 50 nM, BMP6): near complete inhibition; IC50 ([21]; Mus musculus, read-out: IC50 against BMP6 signaling): < 50 nM |
| c1cc(-c2cnn3cc(-c4ccc(OCCN5CCCCC5)cc4)cnc23)ccn1 [Dorsomorphin] | 3.8 | 2.8 | -0.3 | 1.2 | 1.2 | 4.4 | 5.1 | -0.1 | 0.1 | 4.3 | 4.7 | 0.1 | 0.9 | 2.7 | 0.2 | 4.2 | 0.3 | 1.1 | – | – | ΔTm at 10 µM [23]: -0.1 °C |
| c1ccc2c(-c3cnn4cc(-c5ccc(N6CCNCC6)cc5)cnc34)ccnc2c1 [LDN-193189] | – | – | – | – | – | – | – | – | – | – | – | – | – | – | – | – | – | – | potently inhibited | no effect | ΔTm at 10 µM [23]: -0.2 °C |
